Data published in PubChem BioAssay (NCI).
Several values for one entry are separate records, joined by “and”; a condition that tells them apart may be missing. Identical values can stand only once.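 Five concentrations, 48 hours, 96-well plates. Abbreviation: GI50, concentration required for 50% inhibition of growth. TGI: concentration producing complete growth inhibition.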

Tests used:
Assay in all cases: inhibition of tumour cell growth, NCI panel, 48 h
[1] = test system: HCT-15 colon
[2] = test system: HOP-62 NSCLC
[3] = test system: HT29 colon
[4] = test system: NCI/ADR-RES ovarian
[5] = test system: OVCAR-3 ovarian
[6] = test system: OVCAR-5 ovarian
[7] = test system: SNB-75 CNS
[8] = test system: SW-620 colon
[9] = test system: U251 CNS
[10] = test system: HL-60(TB) leukemia

Structure (SMILES)	GI50 [1]	GI50 [2]	TGI [2]	GI50 [3]	TGI [3]	GI50 [4]	TGI [4]	GI50 [5]	TGI [5]	GI50 [6]	TGI [6]	GI50 [7]	TGI [7]	GI50 [8]	GI50 [9]	TGI [1]	TGI [10]	TGI [8]	TGI [9]	GI50 [10]
Cc1cc(Cl)ccc1Nc1nc(C(F)(F)F)ccc1C(=O)N/N=C/c1ccc([N+](=O)[O-])cc1	0.803 µM	3.35 µM	> 35.7 µM	3.11 µM	> 37.5 µM	1.98 µM	> 32.5 µM	0.777 µM	2.63 µM	2.99 µM	> 100 µM	1.71 µM	10 µM	1.07 µM	0.953 µM	–	–	–	–	–
Cc1ccc(-c2cc(-c3ccccc3)c(C#N)c(=O)n2C2OC(CO)C(O)C(O)C2O)cc1 (stereo unspecified)	–	–	> 100 µM	–	> 100 µM	–	–	–	> 100 µM	–	> 100 µM	–	–	–	–	> 100 µM	> 100 µM	> 100 µM	> 100 µM	–
Cc1ccc(-c2cc(-c3ccco3)c(C#N)c(=O)n2C2OC(OC(=O)c3ccccc3)C(OC(=O)c3ccccc3)C2OC(=O)c2ccccc2)cc1 (stereo unspecified)	–	–	> 100 µM	–	> 100 µM	–	–	–	> 100 µM	–	> 100 µM	–	> 100 µM	–	–	> 100 µM	–	> 100 µM	–	–
N#CCCN(CCC#N)c1ccc(C(Sc2ccccc2)C(NC(=O)c2cc([N+](=O)[O-])ccc2Cl)C(=O)Sc2ccccc2)cc1 (stereo unspecified)	2.25 µM	3.87 µM	12 µM	2.59 µM	7.58 µM	–	–	2.14 µM	8.36 µM and 7.63 µM	–	11.7 µM	1.85 µM	7.19 µM	3.77 µM	–	11.2 µM	3.62 µM and 2.29 µM	14.3 µM	4.15 µM and 6.01 µM	0.416 µM
C[C@]12CCCC(=O)C1(O)C[C@H](C(=O)O)CC2 (stereo partly specified)	–	–	> 100 µM	–	> 100 µM	–	–	–	> 100 µM	–	> 100 µM	–	> 100 µM	–	–	> 100 µM	> 100 µM	> 100 µM	> 100 µM	–
CC[O-].CC[O-].O=S(=O)([O-])c1ccc([O-])c2ncccc12.O=S(=O)([O-])c1ccc([O-])c2ncccc12.[Ti+4]	> 100 µM	44 µM	> 100 µM	52.8 µM	> 100 µM	–	–	47.6 µM	> 100 µM	33.5 µM	> 100 µM	72.8 µM	> 100 µM	> 100 µM	–	> 100 µM	> 100 µM	> 100 µM	–	40.9 µM
COC(=O)c1nc(Cl)nc(Cl)c1Cl	–	–	> 100 µM	–	50.2 µM	–	> 100 µM	–	16.8 µM	–	52.3 µM	–	> 100 µM	–	–	46.9 µM	–	38.5 µM	> 100 µM	–
COC(=O)[C@]12CCC(C)[C@H](C)[C@H]1C1=CCC3[C@@]4(C)CC[C@H](OC(C)=O)C(C)(C)C4CC[C@@]3(C)C1(C)C(O)C2 (stereo partly specified)	–	–	> 100 µM	–	> 100 µM	–	–	–	> 100 µM	–	> 100 µM	–	> 100 µM	–	–	–	–	> 100 µM	> 100 µM	–
NC(N)=NCCC1OC(=O)C2=C1c1c(O)ccc3nccc(c13)O2 (stereo unspecified)	> 100 µM	> 100 µM	> 100 µM	–	–	> 100 µM	> 100 µM	> 100 µM	> 100 µM	> 100 µM	> 100 µM	–	–	> 100 µM	56.7 µM	> 100 µM	> 100 µM	> 100 µM	> 100 µM	> 100 µM
OC1(c2ccccc2)OC(C#Cc2ccccc2)(c2ccccc2)c2ccccc21 (stereo unspecified)	–	–	28.8 µM	–	4.38 µM	–	–	–	5.93 µM	–	16.8 µM	–	20.4 µM	–	–	13.1 µM	> 100 µM	15.4 µM	15.1 µM	–
Cc1cc2c(cc1C)N(C(=O)CCl)CCN2C(=O)CCl	0.45 µM	1.71 µM	3.37 µM	0.301 µM	0.943 µM	0.746 µM	5.9 µM	1.11 µM	2.46 µM	1.5 µM	3.08 µM	1.48 µM	3.1 µM	0.204 µM	1.39 µM	2.42 µM	–	0.42 µM	2.88 µM	–
Cc1cc(C)c(C(=O)c2no[n+]([O-])c2C(=O)c2c(C)cc(C)c(Br)c2C)c(C)c1Br	–	–	33.4 µM	–	27.4 µM	–	–	–	29.5 µM	–	33 µM	–	25.8 µM	–	–	30 µM	15.2 µM	26.9 µM	25 µM	–
C/C(CCc1ccccc1)=N\NC(N)=S	–	–	> 100 µM	–	> 100 µM	–	–	–	> 100 µM	–	> 100 µM	–	> 100 µM	–	–	> 100 µM	> 100 µM	> 100 µM	> 100 µM	–
COc1ccc(/C=C2\CCCC(C(NO)c3ccc(OC)cc3)C2=NO)cc1 (stereo unspecified)	–	–	> 100 µM	–	> 100 µM	–	–	–	> 100 µM	–	–	–	79.6 µM	–	–	> 100 µM	43.1 µM	> 100 µM	> 100 µM	–
COC1C2C=CC(C2)[C@H]1[N+](=O)[O-] (stereo partly specified)	–	–	> 100 µM	–	> 100 µM	–	–	–	> 100 µM	–	> 100 µM	–	> 100 µM	–	–	> 100 µM	> 100 µM	> 100 µM	> 100 µM	–
CC1=C(C(=O)Nc2cccc(Cl)c2)C(c2ccccc2F)C(C(=O)Nc2cccc(Cl)c2)=C(C)N1	–	–	31.3 µM	–	15.5 µM	–	–	–	25.2 µM	–	37.2 µM	–	54.9 µM	–	–	–	18.7 µM	64.6 µM	37.7 µM	–
COC(=O)C(CC(=O)Nc1ccc(C)cc1)C(=O)C(=O)Nc1ccccc1C(C)C (stereo unspecified)	–	–	> 100 µM	–	> 100 µM	–	–	–	> 100 µM	–	> 100 µM	–	> 100 µM	–	–	> 100 µM	> 100 µM	41.7 µM	> 100 µM	–
CC(=O)OCC(OC(C)=O)C(OC(C)=O)C(OC(C)=O)C(=O)CNn1c(-c2ccccc2Cl)nc2ccccc2c1=O (stereo unspecified)	–	–	> 100 µM	–	> 100 µM	–	–	–	> 100 µM	–	> 100 µM	–	> 100 µM	–	–	> 100 µM	> 100 µM	> 100 µM	> 100 µM	–
Cc1ccccc1C1=C(C(=O)Nc2ccc(Cl)c(Cl)c2)NC(=S)NC1N (stereo unspecified)	–	–	–	–	> 100 µM	–	–	–	> 100 µM	–	> 100 µM	–	> 100 µM	–	–	> 100 µM	–	> 100 µM	> 100 µM	–
CC(=O)NC(CCCCNC(=O)NCCCl)C(=O)NCc1ccccc1 (stereo unspecified)	–	–	> 100 µM	–	> 100 µM	–	–	–	> 100 µM	–	–	–	> 100 µM	–	–	> 100 µM	> 100 µM	> 100 µM	> 100 µM	–
